For this experiment, the target named is T1, Δ^5-desaturase (Caenorhabditis elegans, UniProt G5EG11).
T1 construct: expressed in transfected cells; host or cells: Arabidopsis plants (seed) doubly transformed with Δ8 and Δ5 constructs
T1 sequence (G5EG11 1-447): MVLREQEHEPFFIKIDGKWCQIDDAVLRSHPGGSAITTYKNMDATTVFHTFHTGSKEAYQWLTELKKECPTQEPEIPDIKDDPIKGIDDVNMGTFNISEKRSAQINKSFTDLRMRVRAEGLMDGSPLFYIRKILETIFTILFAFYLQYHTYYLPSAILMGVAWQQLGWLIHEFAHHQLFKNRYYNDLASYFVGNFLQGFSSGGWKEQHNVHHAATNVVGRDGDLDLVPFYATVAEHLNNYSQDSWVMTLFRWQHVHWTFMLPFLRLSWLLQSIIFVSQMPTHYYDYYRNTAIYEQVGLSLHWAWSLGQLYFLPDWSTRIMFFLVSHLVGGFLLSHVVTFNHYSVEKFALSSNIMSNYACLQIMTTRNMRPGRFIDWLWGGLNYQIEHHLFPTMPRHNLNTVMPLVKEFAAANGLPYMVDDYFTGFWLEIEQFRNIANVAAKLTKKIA
The experiment is described as follows: Arabidopsis plants doubly transformed with both desaturases, seed fatty acid methyl ester analysis. The format is in vivo. The following applies: seed from plants doubly transformed with both desaturases. From the text:
For example, the expression of the Δ^5- and Δ^8-desaturases in a plant, such as Arabidopsis, can be achieved by constructing a plant transformation vector to introduce the cDNA of each desaturase into the plant. The vector can contain a tissue specific promoter so that the desaturase protein will be expressed during seed development. Examples of seed specific promoters include that for phaseolin (van der Geest and Hall, Plant Mol. Biol. 32:579-88, 1996) or the promoter for napin (Stalberg et al., Plant Mol. Biol. 23: 671-83, 1993). Other seed-specific promoters that can be used are those located on the genomic BAC clone T24A18 (LOCUS ATT24A18. (1999) 45980 bp Arabidopsis thaliana DNA chromosome 4, ACCESSION # AL035680, NID g4490701) of the Arabidopsis genome. […] Transformation of Arabidopsis is readily achieved using the Agrobacterium-mediated vacuum infiltration process (Katavic et al., Mol. Gen. Genet. 245:363-70, 1994) or the floral dip modification of it (Clough and Bent, Plant J. 16:735-43, 1998), although several other methods are also commonly used. […] Since the Δ^8 and Δ^5 constructs use different selectable markers the double transformants are readily isolated. […] The seeds of transformed plants are analyzed by isolation of fatty acid methyl esters followed by gas chromatography to determine the fatty acid composition.

In the case of `CCCCCCCCC=CCC=CCCCCCCC(=O)O` [20:Δ^8,11], the “conversion to 20:3Δ^5,8,11 in seed” value is “convert”.

The values above are taken from patent US10351871B2, “Desaturases and methods of using them for synthesis of polyunsaturated fatty acids” (Washington State University, priority 1998, dated 2019).
